In PubChem BioAssay AID2060498 (Molecular Pharmacology Branch, DTP, NCI, 2025):

Test system: 171881-019-R-J1-PDC tumor spheroids, viability
Assay: Anticancer human tumor 171881-019-R-J1-PDC patient-derived invasive breast carcinoma cell line growth inhibition [GQUAD]
Conditions: spheroids with HUVEC and MSC; for IC50: curve of first compound; for viability, T/C: stronger effect = lower value
In short: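 Multi-cell-type spheroids of tumor cells with HUVEC and mesenchymal stem cells, treated with drug combinations. Concentrations descend in half-log steps from near clinical Cmax, or from 10 microM where Cmax is unknown; viability read-out.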

[1] = second compound 0.0316 µM, first compound 0.0316 µM
[2] = second compound 0.0316 µM, first compound 0.316 µM
[3] = second compound 0.1 µM, first compound 0.0316 µM
[4] = second compound 0.1 µM, first compound 0.316 µM
[5] = second compound 0.316 µM, first compound 0.0316 µM
[6] = second compound 0.316 µM, first compound 0.316 µM
[7] = second compound 1 µM, first compound 0.0316 µM
[8] = second compound 1 µM, first compound 0.316 µM
[9] = second compound 3.16 µM, first compound 0.0316 µM
[10] = second compound 3.16 µM, first compound 0.316 µM
[11] = second compound 10 µM, first compound 0.0316 µM
[12] = second compound 10 µM, first compound 0.316 µM
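Further: spheroids exposed to compounds for 7 days.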
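Wherever viability, T/C is given: 100% = DMSO vehicle control viability.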

Cc1[nH]c2ccccc2c1CCNCc1ccc(/C=C/C(=O)NO)cc1 + Cc1cnc(CNC(=O)c2c(=O)c3ccc(N4CCCN(C)CC4)nc3n3c2sc2ccccc23)cn1
IC50 (second compound 0.0316 µM): 43.3 nM
IC50 (second compound 0.1 µM): 47.5 nM
IC50 (second compound 0.316 µM): 43.4 nM
IC50 (second compound 1 µM): 46 nM
IC50 (second compound 3.16 µM): 37.2 nM
IC50 (second compound 10 µM): 37.6 nM
viability, T/C (second compound 0.0316 µM, first compound 0.000999 µM): 108%
viability, T/C (second compound 0.0316 µM, first compound 0.00316 µM): 89.9%
viability, T/C (second compound 0.0316 µM, first compound 0.00999 µM): 81.7%
viability, T/C [1]: 61.3%
viability, T/C (second compound 0.0316 µM, first compound 0.0999 µM): 26.1%
viability, T/C [2]: 0.61%
viability, T/C (second compound 0.1 µM, first compound 0.000999 µM): 89.1%
viability, T/C (second compound 0.1 µM, first compound 0.00316 µM): 75.4%
viability, T/C (second compound 0.1 µM, first compound 0.00999 µM): 69.1%
viability, T/C [3]: 66.9%
viability, T/C (second compound 0.1 µM, first compound 0.0999 µM): 24.9%
viability, T/C [4]: 0.91%
viability, T/C (second compound 0.316 µM, first compound 0.000999 µM): 75.3%
viability, T/C (second compound 0.316 µM, first compound 0.00316 µM): 71.1%
viability, T/C (second compound 0.316 µM, first compound 0.00999 µM): 71.2%
viability, T/C [5]: 58.9%
viability, T/C (second compound 0.316 µM, first compound 0.0999 µM): 26.6%
viability, T/C [6]: 0.83%
viability, T/C (second compound 1 µM, first compound 0.000999 µM): 71.9%
viability, T/C (second compound 1 µM, first compound 0.00316 µM): 61.2%
viability, T/C (second compound 1 µM, first compound 0.00999 µM): 64%
viability, T/C [7]: 62.9%
viability, T/C (second compound 1 µM, first compound 0.0999 µM): 23.4%
viability, T/C [8]: 0.22%
viability, T/C (second compound 3.16 µM, first compound 0.000999 µM): 60.9%
viability, T/C (second compound 3.16 µM, first compound 0.00316 µM): 57.4%
viability, T/C (second compound 3.16 µM, first compound 0.00999 µM): 67.8%
viability, T/C [9]: 55.9%
viability, T/C (second compound 3.16 µM, first compound 0.0999 µM): 12.2%
viability, T/C [10]: 0.93%
viability, T/C (second compound 10 µM, first compound 0.000999 µM): 57.4%
viability, T/C (second compound 10 µM, first compound 0.00316 µM): 61.3%
viability, T/C (second compound 10 µM, first compound 0.00999 µM): 57.1%
viability, T/C [11]: 58.1%
viability, T/C (second compound 10 µM, first compound 0.0999 µM): 3.88%
viability, T/C [12]: 0.37%

CCCS(=O)(=O)Nc1ccc(F)c(C(=O)c2c[nH]c3ncc(-c4ccc(Cl)cc4)cc23)c1F + CN(C)c1ccc(Nc2c3ccc(NC(=O)CCN4CCCC4)cc3nc3cc(NC(=O)CCN4CCCC4)ccc23)cc1
IC50 (second compound 0.0316 µM): 9820 nM
IC50 (second compound 0.1 µM): 9480 nM
IC50 (second compound 0.316 µM): 3260 nM
IC50 (second compound 1 µM): < 31.6 nM
IC50 (second compound 3.16 µM): < 31.6 nM
IC50 (second compound 10 µM): < 31.6 nM
viability, T/C [1]: 99.8%
viability, T/C (second compound 0.0316 µM, first compound 0.1 µM): 108%
viability, T/C [2]: 102%
viability, T/C (second compound 0.0316 µM, first compound 1 µM): 116%
viability, T/C (second compound 0.0316 µM, first compound 3.16 µM): 93.7%
viability, T/C (second compound 0.0316 µM, first compound 10 µM): 49.2%
viability, T/C [3]: 76.9%
viability, T/C (second compound 0.1 µM, first compound 0.1 µM): 100%
viability, T/C [4]: 84.2%
viability, T/C (second compound 0.1 µM, first compound 1 µM): 104%
viability, T/C (second compound 0.1 µM, first compound 3.16 µM): 94.5%
viability, T/C (second compound 0.1 µM, first compound 10 µM): 47.9%
viability, T/C [5]: 43.8%
viability, T/C (second compound 0.316 µM, first compound 0.1 µM): 53.4%
viability, T/C [6]: 55.8%
viability, T/C (second compound 0.316 µM, first compound 1 µM): 44.1%
viability, T/C (second compound 0.316 µM, first compound 3.16 µM): 56.2%
viability, T/C (second compound 0.316 µM, first compound 10 µM): 25.8%
viability, T/C [7]: 5.16%
viability, T/C (second compound 1 µM, first compound 0.1 µM): 3.85%
viability, T/C [8]: 4.58%
viability, T/C (second compound 1 µM, first compound 1 µM): 3.58%
viability, T/C (second compound 1 µM, first compound 3.16 µM): 3.49%
viability, T/C (second compound 1 µM, first compound 10 µM): 3.08%
viability, T/C [9]: 0.35%
viability, T/C (second compound 3.16 µM, first compound 0.1 µM): 0.31%
viability, T/C [10]: 0.72%
viability, T/C (second compound 3.16 µM, first compound 1 µM): 0.43%
viability, T/C (second compound 3.16 µM, first compound 3.16 µM): 0.5%
viability, T/C (second compound 3.16 µM, first compound 10 µM): 0.53%
viability, T/C [11]: 0.11%
viability, T/C (second compound 10 µM, first compound 0.1 µM): 0.23%
viability, T/C [12]: 0.24%
viability, T/C (second compound 10 µM, first compound 1 µM): 0.32%
viability, T/C (second compound 10 µM, first compound 3.16 µM): 0.57%
viability, T/C (second compound 10 µM, first compound 10 µM): 0.3%
